Values after ≈ are worked out from the molar mass of the structure shown.
Columns and labels:
[1] = test system: Staphylococcus aureus S13E; assay type: cell-based
Protocol: (§1) The MIC's were determined using a standard broth micro-dilution assay.

[2] = test system: Staphylococcus aureus SA1199B; assay type: cell-based
Protocol: as §1

[3] = test system: Entercoccus faecium 180-1; assay: broth micro-dilution MIC; assay type: cell-based
Protocol: as §1

Entercoccus faecium 276 = assay: broth micro-dilution MIC; assay type: cell-based
Protocol: as §1

[4] = test system: Staphylococcus aureus 446; assay: broth micro-dilution MIC; assay type: cell-based
Protocol: as §1

[5] = test system: Staphylococcus aureus 447; assay: broth micro-dilution MIC; assay type: cell-based
Protocol: as §1

[6] = test system: Staphylococcus aureus 489; assay: broth micro-dilution MIC; assay type: cell-based
Protocol: as §1

[7] = test system: Staphylococcus aureus 491; assay: broth micro-dilution MIC; assay type: cell-based
Protocol: as §1

[8] = test system: Staphylococcus aureus SA1199A; assay: broth micro-dilution MIC; assay type: cell-based
Protocol: as §1

[9] = test system: Staphylococcus aureus SA1199; assay: broth micro-dilution MIC; assay type: cell-based
Protocol: as §1

[10] = test system: Staphylococcus aureus X400; assay: broth micro-dilution MIC; assay type: cell-based
Protocol: as §1

[11] = test system: Staphylococcus aureus X778; assay: broth micro-dilution MIC; assay type: cell-based
Protocol: as §1

[12] = test system: Streptococcus pyogenes C203; assay: broth micro-dilution MIC; assay type: cell-based
Protocol: as §1

Entercoccus faecium 180 = assay: broth micro-dilution MIC; assay type: cell-based; details: Entercoccus faecium 180
Protocol: (§2) The formula I compounds have in vitro and in vivo activity against Gram-positive pathogenic bacteria. The MIC's were determined using a standard broth micro-dilution assay.

Entercoccus faecium 2041 = assay: broth micro-dilution MIC; assay type: cell-based; details: Entercoccus faecium 2041
Protocol: as §2

[13] = test system: Enterococcus gallinarum 245; assay: broth micro-dilution MIC; assay type: cell-based; details: Enterococcus gallinarum 245
Protocol: as §2

[14] = test system: Haemophilus influenzae RD; assay: broth micro-dilution MIC; assay type: cell-based; details: Haemophilus influenzae RD
Protocol: as §2

[15] = test system: Staphylococcus epidermidis 270; assay: broth micro-dilution MIC; assay type: cell-based
Protocol: as §2

[16] = test system: Staphylococcus haemolyticus 105; assay: broth micro-dilution MIC; assay type: cell-based
Protocol: as §2

[17] = test system: Staphylococcus haemolyticus 415; assay: broth micro-dilution MIC; assay type: cell-based
Protocol: as §2

[18] = test system: Streptococcus pneumoniae P1; assay: broth micro-dilution MIC; assay type: cell-based
Protocol: as §2

[19] = test system: vancomycin-resistant enterococci; assay: broth micro-dilution, mean geometric MIC; assay type: cell-based, Enterococcus faecium and Enterococcus faecalis; details: enterococci, 24-hour incubation
[20] = test system: vancomycin-susceptible enterococci; assay: broth micro-dilution, mean geometric MIC; assay type: cell-based, Enterococcus faecium and Enterococcus faecalis; details: enterococci, 24-hour incubation
Escherichia coli EC14 = assay: broth micro-dilution MIC; assay type: cell-based
Protocol: as §2

Row | Compound | MIC [1] [µg/mL] | MIC [2] [µg/mL] | MIC [3] [µg/mL] | MIC (Entercoccus faecium 276) [µg/mL] | MIC [4] [µg/mL] | MIC [5] [µg/mL] | MIC [6] [µg/mL] | MIC [7] [µg/mL] | MIC [8] [µg/mL] | MIC [9] [µg/mL] | MIC [10] [µg/mL] | MIC [11] [µg/mL] | MIC [12] [µg/mL] | MIC (Entercoccus faecium 180) [µg/mL] | MIC (Entercoccus faecium 2041) [µg/mL] | MIC [13] [µg/mL] | MIC [15] [µg/mL] | MIC [16] [µg/mL] | MIC [17] [µg/mL] | MIC [18] [µg/mL] | further results
1 | CNC(CC(C)C)C(=O)NC1C(=O)NC(CC(N)=O)C(=O)NC2C(=O)NC3C(=O)NC(C(=O)NC(C(=O)O)c4cc(O)cc(O)c4-c4cc3ccc4O)C(OC3CC(C)(N)C(O)C(C)O3)c3ccc(c(Cl)c3)Oc3cc2cc(c3OC2OC(CO)C(O)C(O)C2OC2CC(C)(NCCCCCCCCOc3ccccc3)C(O)C(C)O2)Oc2ccc(cc2Cl)C1O (stereo not drawn) [Compound 195] | 2 (≈ 1.11 µM) | 1 (≈ 0.557 µM) | ≤ 0.06 | 0.25 (≈ 0.139 µM) | 0.5 (≈ 0.278 µM) | 1 (≈ 0.557 µM) | 1 (≈ 0.557 µM) | 0.5 (≈ 0.278 µM) | ≤ 0.06 | 0.5 (≈ 0.278 µM) | 2 (≈ 1.11 µM) | 0.5 (≈ 0.278 µM) | ≤ 0.06 | 0.5 (≈ 0.278 µM) | ≤ 0.06 | 4 (≈ 2.23 µM) | 0.25 (≈ 0.139 µM) | 1 (≈ 0.557 µM) | 4 (≈ 2.23 µM) | ≤ 0.06 | MIC [14]: 32 µg/mL (≈ 17.8 µM); mean geometric MIC, Vancomycin Resistant Strains [19]: 2.0 µg/mL; mean geometric MIC, Vancomycin Sensitive Strains [20]: 0.042 µg/mL
2 | CNC(CC(C)C)C(=O)NC1C(=O)NC(CC(N)=O)C(=O)NC2C(=O)NC3C(=O)NC(C(=O)NC(C(=O)O)c4cc(O)cc(O)c4-c4cc3ccc4O)C(OC3CC(C)(N)C(O)C(C)O3)c3ccc(c(Cl)c3)Oc3cc2cc(c3OC2OC(CO)C(O)C(O)C2OC2CC(C)(NCCCCCCCCCCc3ccccc3)C(O)C(C)O2)Oc2ccc(cc2Cl)C1O (stereo not drawn) [Compound 197] | 2 (≈ 1.11 µM) | 2 (≈ 1.11 µM) | 0.25 (≈ 0.138 µM) | 1 (≈ 0.553 µM) | 1 (≈ 0.553 µM) | 2 (≈ 1.11 µM) | 2 (≈ 1.11 µM) | 1 (≈ 0.553 µM) | 1 (≈ 0.553 µM) | 2 (≈ 1.11 µM) | 2 (≈ 1.11 µM) | 2 (≈ 1.11 µM) | ≤ 0.06 | 0.5 (≈ 0.276 µM) | 0.25 (≈ 0.138 µM) | 4 (≈ 2.21 µM) | 0.5 (≈ 0.276 µM) | 1 (≈ 0.553 µM) | 4 (≈ 2.21 µM) | ≤ 0.06 | MIC [14]: 32 µg/mL (≈ 17.7 µM); mean geometric MIC, Vancomycin Resistant Strains [19]: 1.2 µg/mL; mean geometric MIC, Vancomycin Sensitive Strains [20]: 0.16 µg/mL
3 | CNC(CC(C)C)C(=O)NC1C(=O)NC(CC(N)=O)C(=O)NC2C(=O)NC3C(=O)NC(C(=O)NC(C(=O)O)c4cc(O)cc(O)c4-c4cc3ccc4O)C(OC3CC(C)(N)C(O)C(C)O3)c3ccc(c(Cl)c3)Oc3cc2cc(c3OC2OC(CO)C(O)C(O)C2OC2CC(C)(NCC3CCCCC3)C(O)C(C)O2)Oc2ccc(cc2Cl)C1O (stereo not drawn) [Compound 161] | 0.125 (≈ 0.074 µM) | 0.25 (≈ 0.148 µM) | ≤ 0.06 | 0.125 (≈ 0.074 µM) | 0.5 (≈ 0.296 µM) | 1 (≈ 0.592 µM) | ≤ 0.06 | 0.5 (≈ 0.296 µM) | ≤ 0.06 | 0.25 (≈ 0.148 µM) | 0.5 (≈ 0.296 µM) | 0.5 (≈ 0.296 µM) | ≤ 0.06 | 2 (≈ 1.18 µM) | ≤ 0.06 | 8 (≈ 4.74 µM) | 1 (≈ 0.592 µM) | 4 (≈ 2.37 µM) | 8 (≈ 4.74 µM) | ≤ 0.06 | MIC (Escherichia coli EC14): > 64 µg/mL; mean geometric MIC, Vancomycin Resistant Strains [19]: 23 µg/mL; mean geometric MIC, Vancomycin Sensitive Strains [20]: 0.44 µg/mL
